The test relates to whole plants. The test is described as follows: Herbicidal activity on whole plants. The format is in vivo.

Take `Cc1nc2c(F)c(F)ccc2cc1Oc1cccc(F)c1C(C)(C)O` [ipflufenoquin]: the herbicidal effectiveness entry was “ineffective”.

(Values after PMC10691210 (Proceedings of the National Academy of Sciences of the …, 2023).)
